# Experimental data published in patent US6939863B2, “Prevention of atherosclerosis and restenosis” (priority 2002, dated 2005).
# pIC50: −log10 of the molar value. “Also recorded” adds a separate entry of the source. Like-named read-outs stand apart in the source and are kept apart here.
# Legend:
# [1] = system: type I and type III collagen expression in rat vascular smooth muscle cells; conditions: 5 millimolar
# Experimental: The expression of smooth muscle cell collagen was determined by Northern blot analysis at the RNA level and Western blot analysis on the protein level. Total RNA (10 micrograms) from vascular smooth muscle cells grown in the media containing 0 (Control), 0.5 millimolar, 2.5 millimolar, or 5 millimolar propylthiouracil (PTU) for 24 hours was electrophoresed on a 1% agarose gel. The levels of pro-α1(I) collagen mRNA were measured as radioactivities, normalized relative to the density of 18S and 28S rRNA (FIG. 12, Panel A).
# The effects of lower physiological concentrations of propylthiouracil on the expression of type I and type III collagen genes was also studied at the RNA level. Northern blot analysis was carried out on total RNA from rat vascular smooth muscle cells grown for 24 to 72 hours (1 to 3 days) in media containing 0 (Control, C), 0.38 millimolar, 0.5 millimolar, or 0.76 millimolar propylthiouracil. Type I collagen (FIG. 13, Panel A) and type III collagen (FIG. 13, Panel B) mRNA radioactivity levels were normalized relative to 18S and 28S rRNA (FIG. 13, Panel C).
# Type I collagen (FIG. 14, Panel A) and type III collagen (FIG. 14, Panel B) protein levels were normalized relative to the protein levels of tubulin. […]
# restenosis = conditions: summary table; cited from earlier work; note: key: '+' represents the ability; a '−' represents the inability of conversion from a non-contracile phenotype to a contractile phenotype in an in vitro condition; A '↓' represents decrease; a '?' represents no data is available
# [2] = system: human endothelial cells from umbilical veins; assay: cells
# Experimental: (§1) Rat vascular smooth muscle cells (VSMCs) (passages 5-10) were prepared from Sprague-Dawley rats and cultured in Dulbecco's modified Eagle's medium (DMEM) supplemented with 10% fetal bovine serum (FBS) as previously described (Kirschenlohr et al, in “Human Cell Culture Protocols”, New Jersey, Humana Press Inc, 1996, pp. 318-335). Human endothelial cells from umbilical veins were prepared as described (Morgan, in “Human Cell Culture Protocols”, New Jersey, Humana Press Inc, 1996, pp. 101-152)
# (§2) Rat vascular smooth muscle cells and human endothelial cells were plated at a density of 10,000 cells per square centimeter in 24-well plates. After 24 hours, cells at 70-80% confluency were treated with propylthiouracil dissolved in 100% dimethylsulfoxide (DMSO) at final concentrations of from 0.05 millimolar to 15 millimolar, or with methimazole (Sigma, St. Louis, Mo.) dissolved in water at the concentrations of from 0.01 millimolar to 1 millimolar for 24-72 hours. Cell numbers were visually counted using a hemocytometer. For the thymidine incorporation study, cells were deprived of serum for 36 hours and labeled with [methyl-^3H]thymidine at […] per milliliter for 12-24 hours after synchronization. Thymidine incorporation was then measured (Newby and George, 1996, Curr. Opin. Cardiol., 11:547). Effects of propylthiouracil and methimazole on the number of vascular smooth muscle cells and human endothelial cells and thymidine incorporation by vascular smooth muscle cells were each expressed as a percentage of the number and thymidine incorporation of control cells maintained in medium containing 0.1% DMSO as vehicle.
# [3] = system: rat vascular smooth muscle cells; assay: Vascular smooth muscle cell proliferation (cell number); assay type: cell-based; conditions: for Cell number of VSMCs: 24 hours
# Experimental: as §1, §2
# [4] = summary table; cited from earlier work
# [5] = system: rat vascular smooth muscle cells; conditions: summary table, propylthiouracil; non-contractile to contractile phenotype in vitro
# [6] = system: rat vascular smooth muscle cells; conditions: for Pyknosis or karyorhexis (features of apoptosis), propidium iodide-stained cells: 5 millimolar, 24 hours
# [7] = Rabbit 12-week study: body weight, chow and water consumption, serum lipids, thyroid hormone index, blood counts, arterial pressure, heart rate; conditions: for Weight at sacrifice / Chow consumption: 12 weeks; for Chow consumption / Water consumption: mean ± SD
# [8] = system: rat vascular smooth muscle cells
# [9] = system: rat vascular smooth muscle cells; assay: [methyl-3H]thymidine incorporation into VSMCs; assay type: cell-based
# Experimental: as §1, §2
# [10] = propylthiouracil-treated groups
# Throughout, for Anti-inflammation: key: '+' represents the ability; a '−' represents the inability of conversion from a non-contracile phenotype to a contractile phenotype in an in vitro condition; A '↓' represents decrease; a '?' represents no data is available.
smiles,measurement,setting,value
"CCCc1cc(=O)[nH]c(=S)[nH]1 [Propylthiouracil, 6-n-propyl-2-thiouracil]",Staining density for type I collagen (immunocytochemistry),[1],decrease
same,Staining density for type III collagen (immunocytochemistry),[1],decrease
same,"Effect on animal models of restenosis, Rat",restenosis,+
same,Concentration at which significant inhibition of growth of vascular endothelial cells was observed,[2]; 24 hours,≥ 10 millimolar
same,Growth of vascular endothelial cells,"[2]; 24 hours, concentrations of up to 7.5 millimolar",did not significantly inhibit
same,"Difference in inhibitory effect, vascular endothelial cells less than vascular smooth muscle cells",[2]; FIG. 7,20-30%
same,pIC50,"[2]; Homo sapiens, Endothelial cell, 24 h, read-out: IC50 for endothelial cells (proliferation)",1.92
same,Endothelial cellular function,"[2]; summary table, propylthiouracil",+
same,Cell number of VSMCs,[3]; 0.05 millimolar,103 % of control
same,Proliferation of VSMCs at low concentration,"[3]; 0.05 millimolar, 24 hours treatment",not inhibited
same,"Proliferation of VSMCs at low concentration, long-term","[3]; 0.05 millimolar, exposed for more than 2 days",antiproliferative effect was indeed observed
same,Cell number of VSMCs,[3]; 0.5 millimolar,103 % of control
same,Cell number of VSMCs,[3]; 2.5 millimolar,76 % of control
same,Cell number of VSMCs,[3]; 5 millimolar,57 % of control
same,pIC50,"[3]; Rattus norvegicus, VSMC, 24 h, read-out: IC50 for VSMCs (proliferation)",2.24
same,Inhibition of growth/proliferation of VSMCs,"[3]; concentration-dependent, PTU 0.05-5 millimolar, methimazole 0.01-1 millimolar",significantly inhibited
same,Anti-inflammation,[4],+
same,Phenotype change,[5],+
same,"Pyknosis or karyorhexis (features of apoptosis), propidium iodide-stained cells",[6],did not cause any pyknosis or karyorhexis
same,"Pyknosis or karyorhexis (features of apoptosis), propidium iodide-stained cells",[6]; listed as propylthiouracil,did not cause pyknosis or karyorhexis
same,TUNEL-positive cells in VSMCs,[6]; propylthiouracil-treated VSMCs,absent
same,Serum (milligrams percent) at sacrifice,[7]; 2% cholesterol diet,43 ± 33 milligrams percent
same,Serum CHO at sacrifice,[7]; 2% cholesterol diet,1965 ± 156 milligrams percent
same,Serum HDL at sacrifice,[7]; 2% cholesterol diet,67 ± 24 milligrams percent
same,Serum LDL at sacrifice,[7]; 2% cholesterol diet,1856 ± 152 milligrams percent
same,Serum TG at sacrifice,[7]; 2% cholesterol diet,213 ± 167 milligrams percent
same,Weight at sacrifice,[7]; 2% cholesterol diet,3.06 ± 0.17 kilograms
same,Chow consumption,[7]; 2% cholesterol diet,123 ± 18 grams per day
same,Water consumption,[7]; 2% cholesterol diet,201 ± 41 milliliters per day
same,Body weight at the end of treatment,"[7]; PTU and CHO+PTU groups, despite decreased water and chow intake",did not have a reduction in the body weight
same,Serum thyroxine (T4),[7]; after 4 weeks of treatment,decreased-to unmeasurable levels
same,Serum triiodothyronine (T3),[7]; after 4 weeks of treatment,decreased-to unmeasurable levels; also recorded: decreased to unmeasurable levels
same,Thyrotropin (TSH) level,[7]; hypothyroid groups,increase
same,Arterial pressures and heart rates,[7]; hypothyroid propylthiouracil-treated groups,did not have their arterial pressures and heart rates altered
same,Serum (milligrams percent) at sacrifice,[7]; normal chow,32 ± 8 milligrams percent
same,Serum CHO at sacrifice,[7]; normal chow,154 ± 22 milligrams percent
same,Serum HDL at sacrifice,[7]; normal chow,43 ± 30 milligrams percent
same,Serum LDL at sacrifice,[7]; normal chow,82 ± 32 milligrams percent
same,Serum TG at sacrifice,[7]; normal chow,175 ± 50 milligrams percent
same,Weight at sacrifice,[7]; normal chow,3.08 ± 0.17 kilograms
same,Chow consumption,[7]; normal chow,113 ± 13 grams per day
same,Water consumption,[7]; normal chow,196 ± 17 milliliters per day
same,"Serum cholesterol, triglyceride, LDL, and VLDL levels compared with the control group","[7]; normal chow, propylthiouracil only (Group 2)",slight increase
same,Agranulocytosis,[7]; [10],did not occur
same,Blood counts,[7]; [10],remained essentially unchanged
same,Cytotoxic effect on VSMCs by trypan blue exclusion test,[8]; 24 hours,no cytotoxic effect
same,Number of cells that excluded trypan blue,"[8]; 24 hours treatment, n=5",94.4±0.4%
same,Thymidine incorporation into VSMCs,[9]; 0.05 millimolar,99 % of control
same,Thymidine incorporation into VSMCs,[9]; 0.5 millimolar,93 % of control
same,Thymidine incorporation into VSMCs,[9]; 2.5 millimolar,75 % of control
same,Thymidine incorporation into VSMCs,[9]; 5 millimolar,38 % of control
same,Inhibition of thymidine incorporation into VSMCs,[9]; concentration-dependent,significantly inhibited
